# Biological target: T1, human Glu-plasminogen (Homo sapiens, UniProt P00747)
# T1 construct: human Glu-plasminogen; purchased Chromogenix, Italy
# Experiment: Clot-lysis buffer assay
# Assay type: biochemical
# Procedure: The assay method used for evaluating biological activity of the compounds according to the invention was Clot-lysis buffer assay.
# Tested substance were added to the reaction mixture in 10% DMSO. Reaction was started by the addition of thrombin.
# Measured according to the Clot-lysis buffer assay described above.
# T1 sequence (P00747 20-810 limits assumed): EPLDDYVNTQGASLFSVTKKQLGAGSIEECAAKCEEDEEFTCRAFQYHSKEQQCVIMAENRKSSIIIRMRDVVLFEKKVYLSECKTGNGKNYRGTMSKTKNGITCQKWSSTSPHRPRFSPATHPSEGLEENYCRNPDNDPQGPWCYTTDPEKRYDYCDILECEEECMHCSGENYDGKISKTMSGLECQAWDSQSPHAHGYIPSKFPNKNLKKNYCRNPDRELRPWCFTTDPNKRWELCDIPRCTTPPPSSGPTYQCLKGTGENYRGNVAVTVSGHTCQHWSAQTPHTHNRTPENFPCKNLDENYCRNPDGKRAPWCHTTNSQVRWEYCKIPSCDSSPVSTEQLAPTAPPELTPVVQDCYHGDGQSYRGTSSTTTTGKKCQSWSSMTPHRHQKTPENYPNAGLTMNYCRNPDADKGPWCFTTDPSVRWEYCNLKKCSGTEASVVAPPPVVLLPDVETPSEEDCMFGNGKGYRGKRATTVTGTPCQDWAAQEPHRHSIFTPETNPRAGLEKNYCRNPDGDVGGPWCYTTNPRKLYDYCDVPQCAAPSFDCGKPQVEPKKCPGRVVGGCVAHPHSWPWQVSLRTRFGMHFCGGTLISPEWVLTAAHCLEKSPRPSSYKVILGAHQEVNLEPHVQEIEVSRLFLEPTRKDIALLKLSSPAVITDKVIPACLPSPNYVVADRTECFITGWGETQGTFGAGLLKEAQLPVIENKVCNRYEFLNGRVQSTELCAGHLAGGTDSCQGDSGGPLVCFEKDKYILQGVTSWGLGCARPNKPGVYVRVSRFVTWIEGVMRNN
row,SMILES,IC50
1,"O=c1cc([C@H]2CCN[C@@H](Cc3cc(F)ccc3F)C2)o[nH]1 [Example 124, 5-((2R,4S)-2-(2,5-Difluorobenzyl)piperidin-4-yl)isoxazol-3(2H)-one]",1.2 µM
2,"O=c1cc([C@H]2CCN[C@@H](Cc3c(F)cccc3F)C2)o[nH]1 [Example 127, 5-((2R,4S)-2-(2,6-Difluorobenzyl)piperidin-4-yl)isoxazol-3(2H)-one]",1.4 µM
3,"O=c1cc([C@@H]2CCN[C@H](Cc3cc(F)cc(F)c3)C2)o[nH]1 [Example 131, 5-((2S,4R)-2-(3,5-Difluorobenzyl)piperidin-4-yl)isoxazol-3(2H)-one]",128 µM
4,"O=c1cc([C@@H]2CCN[C@@H](Cc3cc(F)cc(F)c3)C2)o[nH]1 [Example 133, 5-((2R,4R)-2-(3,5-Difluorobenzyl)piperidin-4-yl)isoxazol-3(2H)-one]",120 µM
5,"O=c1cc([C@@H]2CCN[C@H](Cc3cc(F)cc(C(F)(F)F)c3)C2)o[nH]1 [Example 138, 5-((2S,4R)-2-(3-Fluoro-5-(trifluoromethyl)benzyl)piperidin-4-yl)isoxazol-3(2H)-one]",123 µM
6,"O=c1cc([C@H]2CCN[C@@H](Cc3cc(F)c(F)c(F)c3)C2)o[nH]1 [Example 143, 5-((2R,4S)-2-(3,4,5-Trifluorobenzyl)piperidin-4-yl)isoxazol-3(2H)-one]",0.9 µM
7,"O=c1cc([C@@H]2CCN[C@H](Cc3cc(F)c(F)c(F)c3)C2)o[nH]1 [Example 144, 5-((2S,4R)-2-(3,4,5-Trifluorobenzyl)piperidin-4-yl)isoxazol-3(2H)-one]",88.2 µM

# The next lines start with the values.
row,IC50,SMILES
1,92.9 µM,"O=c1cc([C@@H]2CCN[C@H](Cc3cc(F)ccc3F)C2)o[nH]1 [Example 125, 5-((2S,4R)-2-(2,5-Difluorobenzyl)piperidin-4-yl)isoxazol-3(2H)-one]"
2,31.4 µM,"O=c1cc([C@@H]2CCN[C@H](Cc3c(F)cccc3F)C2)o[nH]1 [Example 128, 5-((2S,4R)-2-(2,6-Difluorobenzyl)piperidin-4-yl)isoxazol-3(2H)-one]"
3,1.1 µM,"O=c1cc([C@H]2CCN[C@@H](Cc3cc(F)cc(F)c3)C2)o[nH]1 [Example 130, 5-((2R,4S)-2-(3,5-Difluorobenzyl)piperidin-4-yl)isoxazol-3(2H)-one]"
4,2.2 µM,"O=c1cc([C@H]2CCN[C@H](Cc3cc(F)cc(F)c3)C2)o[nH]1 [Example 132, 5-((2S,4S)-2-(3,5-Difluorobenzyl)piperidin-4-yl)isoxazol-3(2H)-one]"
5,0.85 µM,"O=c1cc([C@H]2CCN[C@@H](Cc3ccc(F)cc3F)C2)o[nH]1 [Example 134, 5-((2R,4S)-2-(2,4-Difluorobenzyl)piperidin-4-yl)isoxazol-3(2H)-one]"
6,69.1 µM,"O=c1cc([C@@H]2CCN[C@H](Cc3ccc(F)cc3F)C2)o[nH]1 [Example 135, 5-((2S,4R)-2-(2,4-Difluorobenzyl)piperidin-4-yl)isoxazol-3(2H)-one]"
7,1 µM,"O=c1cc([C@H]2CCN[C@@H](Cc3cc(F)cc(C(F)(F)F)c3)C2)o[nH]1 [Example 137, 5-((2R,4S)-2-(3-Fluoro-5-(trifluoromethyl)benzyl)piperidin-4-yl)isoxazol-3(2H)-one]"
8,0.6 µM,"O=c1cc([C@H]2CCN[C@@H](Cc3ccc(C(F)(F)F)c(F)c3)C2)o[nH]1 [Example 140, 5-((2R,4S)-2-(3-Fluoro-4-(trifluoromethyl)benzyl)piperidin-4-yl)isoxazol-3(2H)-one]"
9,69.5 µM,"O=c1cc([C@@H]2CCN[C@H](Cc3ccc(C(F)(F)F)c(F)c3)C2)o[nH]1 [Example 141, 5-((2S,4R)-2-(3-Fluoro-4-(trifluoromethyl)benzyl)piperidin-4-yl)isoxazol-3(2H)-one]"
10,6.6 µM,"CC(C)(C)c1cc(C[C@H]2C[C@@H](c3cc(=O)[nH]o3)CCN2)cc(C(C)(C)C)c1 [Example 146, 5-((2R,4S)-2-(3,5-Di-tert-butylbenzyl)piperidin-4-yl)isoxazol-3(2H)-one]"
11,44.6 µM,"CC(C)(C)c1cc(C[C@@H]2C[C@H](c3cc(=O)[nH]o3)CCN2)cc(C(C)(C)C)c1 [Example 147, 5-((2S,4R)-2-(3,5-Di-tert-butylbenzyl)piperidin-4-yl)isoxazol-3(2H)-one]"

# From patent publication US8415378B2, “Isoxazol-3(2H)-one analogs as therapeutic agents” (AstraZeneca AB, priority 2009, dated 2013)
